Measurements from ChEMBL document CHEMBL1201862, “PubChem BioAssay data set” (2004).
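Compound exposure: 48 hours, 5 concentrations, 96-well plates. At the GI50, growth is halved.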 Activity calls are given as the source filed them. No stated cut-off is given here; in the data, active = GI50 up to about 1.1 µM and inactive = higher.

Experiments:
Experiment in all cases: inhibition of tumour cell growth, NCI panel, 48 h
DU-145 = tested on: DU-145
CAKI-1 = tested on: CAKI-1
RXF 393 = tested on: RXF 393
ACHN = tested on: ACHN
M14 = tested on: M14
NCI-H460 = tested on: NCI-H460
Malme-3M = tested on: Malme-3M
OVCAR-3 = tested on: OVCAR-3
PC-3 = tested on: PC-3
UACC-62 = tested on: UACC-62
SW-620 = tested on: SW-620
NCI-H522 = tested on: NCI-H522
SNB-19 = tested on: SNB-19
NCI/ADR-RES = tested on: NCI/ADR-RES
A549 = tested on: A549
K562 = tested on: K562
CCRF-CEM = tested on: CCRF-CEM
EKVX = tested on: EKVX
HL-60 = tested on: HL-60
HCT-116 = tested on: HCT-116

Measured: GI50

C=C(C)[C@@H]1CC[C@]2(C)CC[C@]3(C)[C@H](CC[C@@H]4[C@@]5(C)CC[C@H](O)C(C)(C)[C@@H]5CC[C@]43C)[C@@H]12 [LUPEOL]
inactive: DU-145 > 100 µM | CAKI-1 > 81.1 µM | RXF 393 14 µM | ACHN > 55.1 µM | M14 > 94.6 µM | NCI-H460 45.7 µM | Malme-3M > 89.3 µM | OVCAR-3 > 55.1 µM | PC-3 32.3 µM | UACC-62 > 100 µM | SW-620 > 48.2 µM | NCI-H522 23.8 µM | SNB-19 > 47.3 µM | NCI/ADR-RES 26.7 µM | A549 > 62.7 µM | K562 > 46 µM | CCRF-CEM 22.1 µM | EKVX 72.9 µM | HL-60 47.4 µM | HCT-116 44.5 µM

O=c1ssc2ncccc12
inactive: DU-145 33.7 µM | CAKI-1 56.6 µM | RXF 393 18.1 µM | ACHN 17.4 µM | M14 17.9 µM | NCI-H460 20.4 µM | Malme-3M 19.8 µM | OVCAR-3 18.4 µM | PC-3 44 µM | UACC-62 11.6 µM | SW-620 19.7 µM | NCI-H522 7.8 µM | SNB-19 39.2 µM | NCI/ADR-RES 32.6 µM | A549 14.9 µM | K562 9.66 µM | CCRF-CEM 31.5 µM | EKVX 30.2 µM | HL-60 42.4 µM | HCT-116 15.2 µM

C[C@H](CC[C@@H](O)C(C)(C)O)[C@H]1CC[C@@]2(C)[C@@H]3CC=C4[C@@H](CC[C@H](OC5OC(CO)C(O)C(O)C5O)C4(C)C)[C@]3(C)C(=O)C[C@]12C (some centres undefined)
inactive: DU-145 39 µM | CAKI-1 65 µM | RXF 393 35.2 µM | ACHN 32.7 µM | M14 31.1 µM | NCI-H460 52.4 µM | Malme-3M 49.4 µM | OVCAR-3 65 µM | PC-3 75 µM | UACC-62 58.1 µM | SW-620 4.03 µM | NCI-H522 37.6 µM | SNB-19 62.5 µM | NCI/ADR-RES > 100 µM | A549 37.2 µM | K562 18.9 µM | CCRF-CEM 14.6 µM | EKVX 80.4 µM | HL-60 20.7 µM | HCT-116 45.3 µM

COC(=O)C1Cc2c(C)cccc2C1=O (centres undefined)
inactive: DU-145 > 100 µM | CAKI-1 > 100 µM | RXF 393 > 100 µM | ACHN > 100 µM | M14 > 100 µM | NCI-H460 > 100 µM | Malme-3M > 100 µM | OVCAR-3 > 100 µM | PC-3 > 100 µM | UACC-62 > 100 µM | SW-620 > 100 µM | NCI-H522 > 100 µM | SNB-19 > 100 µM | NCI/ADR-RES > 100 µM | A549 > 100 µM | K562 66.7 µM | CCRF-CEM 41.3 µM | EKVX > 100 µM | HL-60 29.4 µM | HCT-116 > 100 µM

CC(=O)OCC1OC(n2c(C)c(C(C)=O)c(-c3cccc4ccccc34)c(C#N)c2=S)C(OC(C)=O)C(OC(C)=O)C1OC(C)=O (centres undefined)
inactive: DU-145 > 100 µM | CAKI-1 > 100 µM | RXF 393 > 100 µM | ACHN > 100 µM | M14 > 100 µM | NCI-H460 > 100 µM | Malme-3M > 100 µM | OVCAR-3 > 100 µM | PC-3 > 100 µM | UACC-62 > 100 µM | SW-620 > 100 µM | NCI-H522 > 100 µM | SNB-19 > 100 µM | NCI/ADR-RES > 100 µM | A549 > 100 µM | K562 > 100 µM | CCRF-CEM > 100 µM | EKVX > 100 µM | HL-60 > 100 µM | HCT-116 > 100 µM

CCOC(=O)C(O)(C(=O)OCC)c1cc(C(C)(C)C)c(O)c(C(C)(C)C)c1
inactive: DU-145 92 µM | CAKI-1 41.2 µM | RXF 393 21.1 µM | ACHN 41.3 µM | M14 39 µM | Malme-3M 42.2 µM | OVCAR-3 76.6 µM | PC-3 33.7 µM | UACC-62 22.9 µM | SW-620 37 µM | NCI-H522 36.9 µM | SNB-19 26 µM | NCI/ADR-RES 18.6 µM | A549 54.3 µM | K562 33.6 µM | CCRF-CEM 37.2 µM | EKVX 48.4 µM | HL-60 25.5 µM | HCT-116 35.1 µM

O=C1CCCc2cc3c(cc21)CC1(C3)Cc2ccc3c(c2C1)C(=O)CCC3 (centres undefined)
inactive: DU-145 39.8 µM | CAKI-1 10.5 µM | RXF 393 37.1 µM | ACHN 5.18 µM | M14 12.7 µM | NCI-H460 26.5 µM | Malme-3M 9.4 µM | OVCAR-3 15.9 µM | PC-3 21.7 µM | SW-620 15.6 µM | NCI-H522 20.9 µM | SNB-19 67.6 µM | NCI/ADR-RES 6.25 µM | A549 21.1 µM | K562 3.31 µM | CCRF-CEM 6.92 µM | EKVX 46.7 µM | HL-60 5.18 µM | HCT-116 12.2 µM

C[C@@]12[C@H]3CC[C@@H]1[C@H](O)C(=O)N2CC3
inactive: DU-145 > 100 µM | CAKI-1 > 100 µM | RXF 393 > 100 µM | ACHN > 100 µM | M14 > 100 µM | NCI-H460 > 100 µM | Malme-3M > 100 µM | OVCAR-3 > 100 µM | PC-3 > 100 µM | UACC-62 > 100 µM | SW-620 > 100 µM | NCI-H522 > 100 µM | SNB-19 > 100 µM | NCI/ADR-RES > 100 µM | A549 > 100 µM | K562 > 100 µM | CCRF-CEM > 100 µM | EKVX > 100 µM | HL-60 > 100 µM

N#CC1(C#N)C(C#N)(C#N)C1(C#N)C(N)=O
inactive: DU-145 > 100 µM | CAKI-1 > 100 µM | RXF 393 > 100 µM | ACHN > 100 µM | M14 > 100 µM | NCI-H460 > 100 µM | Malme-3M > 100 µM | PC-3 > 100 µM | UACC-62 > 100 µM | SW-620 > 100 µM | NCI-H522 > 100 µM | SNB-19 > 100 µM | NCI/ADR-RES > 100 µM | A549 > 100 µM | K562 > 100 µM | CCRF-CEM > 100 µM | EKVX > 100 µM | HL-60 > 100 µM | HCT-116 > 100 µM

C[C@@H]1CC[C@@]2(C)C(C(=O)O)=CCCC2[C@@]1(C)CC(=O)c1ccoc1 (some centres undefined)
inactive: DU-145 > 25 µM | CAKI-1 > 25 µM | RXF 393 > 25 µM | ACHN > 25 µM | M14 > 25 µM | NCI-H460 > 25 µM | OVCAR-3 > 25 µM | PC-3 > 25 µM | UACC-62 > 25 µM | SW-620 > 25 µM | NCI-H522 > 25 µM | SNB-19 > 25 µM | NCI/ADR-RES > 25 µM | A549 > 25 µM | CCRF-CEM > 25 µM | EKVX > 25 µM | HL-60 > 25 µM | HCT-116 > 25 µM
